Data as given in PMC7827406, “Structure–Activity Relationship (SAR) Study of Spautin-1 to Entail the Discovery of Novel NEK4 Inhibitors” (International Journal of Molecular Sciences, 2021).
Where two headings read alike, the source gives them in different places.

Legend:
Test in all cases: biochemical
Set-up in all cases: Eurofins KinaseProfiler full panel at Km ATP, residual kinase activity (%) relative to DMSO
BMPR2(h) = biological target: T1, BMPR2(h) (Homo sapiens, UniProt Q13873)
T1 sequence (Q13873 1-1038): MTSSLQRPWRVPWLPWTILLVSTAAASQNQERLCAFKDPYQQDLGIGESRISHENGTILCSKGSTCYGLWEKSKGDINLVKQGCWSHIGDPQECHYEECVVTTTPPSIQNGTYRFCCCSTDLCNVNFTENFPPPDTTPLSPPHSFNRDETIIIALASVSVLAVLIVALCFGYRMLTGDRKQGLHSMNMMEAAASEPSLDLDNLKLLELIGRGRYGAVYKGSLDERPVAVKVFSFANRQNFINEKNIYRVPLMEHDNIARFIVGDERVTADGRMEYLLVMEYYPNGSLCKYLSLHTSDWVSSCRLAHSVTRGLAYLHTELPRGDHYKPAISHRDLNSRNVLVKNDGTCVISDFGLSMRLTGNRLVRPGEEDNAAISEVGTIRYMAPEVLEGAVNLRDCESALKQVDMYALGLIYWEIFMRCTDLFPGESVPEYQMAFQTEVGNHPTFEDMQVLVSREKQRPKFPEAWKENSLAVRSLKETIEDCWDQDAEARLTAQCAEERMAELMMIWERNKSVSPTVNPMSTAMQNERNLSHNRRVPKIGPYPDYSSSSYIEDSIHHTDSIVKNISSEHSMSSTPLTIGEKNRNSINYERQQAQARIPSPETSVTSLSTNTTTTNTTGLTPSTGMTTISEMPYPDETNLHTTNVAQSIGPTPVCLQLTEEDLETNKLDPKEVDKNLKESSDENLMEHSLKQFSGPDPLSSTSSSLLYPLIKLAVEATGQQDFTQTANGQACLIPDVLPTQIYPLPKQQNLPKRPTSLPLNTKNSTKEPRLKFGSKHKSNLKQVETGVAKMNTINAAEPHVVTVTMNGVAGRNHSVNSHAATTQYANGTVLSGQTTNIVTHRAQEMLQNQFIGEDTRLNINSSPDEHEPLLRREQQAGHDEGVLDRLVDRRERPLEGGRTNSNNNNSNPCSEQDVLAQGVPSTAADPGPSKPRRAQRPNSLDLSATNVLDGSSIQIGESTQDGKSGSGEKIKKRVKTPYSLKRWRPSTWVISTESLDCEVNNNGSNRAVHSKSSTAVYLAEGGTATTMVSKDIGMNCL
Procedure, shortened: (§1)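 Two 10 µM single-concentration screens were run: a competition-binding screen, in which DNA-tagged kinase bound to immobilized ligands was quantified by qPCR, and a radiometric activity panel at Km ATP. Each is expressed as residual kinase activity (%).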

CDK4/cyclinD3(h) = CDK4/cyclinD3(h) (Homo sapiens, UniProt P11802)
Procedure, shortened: as §1

GCN2(h) = biological target: T2, GCN2(h) (Homo sapiens, UniProt Q9P2K8)
T2 construct: gene EIF2AK4
Procedure, shortened: as §1

NEK11(h) = biological target: T3, NEK11(h) (Homo sapiens, UniProt Q8NG66)
T3 sequence (Q8NG66 1-645): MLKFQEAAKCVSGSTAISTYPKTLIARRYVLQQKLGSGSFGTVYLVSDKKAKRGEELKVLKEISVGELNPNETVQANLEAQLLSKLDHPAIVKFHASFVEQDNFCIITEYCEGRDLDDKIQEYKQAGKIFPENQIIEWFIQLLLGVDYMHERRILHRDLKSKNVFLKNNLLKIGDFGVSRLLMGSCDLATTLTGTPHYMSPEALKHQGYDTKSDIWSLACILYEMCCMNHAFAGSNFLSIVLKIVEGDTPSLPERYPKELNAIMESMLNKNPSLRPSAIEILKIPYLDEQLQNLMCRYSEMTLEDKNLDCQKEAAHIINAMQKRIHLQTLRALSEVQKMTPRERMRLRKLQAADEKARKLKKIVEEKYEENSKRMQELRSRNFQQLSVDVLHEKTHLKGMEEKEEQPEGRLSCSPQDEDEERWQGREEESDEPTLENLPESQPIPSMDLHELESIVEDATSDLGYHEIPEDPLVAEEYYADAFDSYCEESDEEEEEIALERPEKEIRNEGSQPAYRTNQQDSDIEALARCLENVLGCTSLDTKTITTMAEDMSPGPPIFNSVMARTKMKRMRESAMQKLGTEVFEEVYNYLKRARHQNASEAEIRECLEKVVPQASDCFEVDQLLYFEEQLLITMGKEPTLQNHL
Procedure, shortened: as §1

[1] = read-out: Residual activity (%) Spautin-1 5aa
[2] = read-out: Residual activity (%) 5as
[3] = read-out: Residual activity (%) 5at
[4] = read-out: Residual activity (%) 5ay

T2 sequence (Q9P2K8 whole entry): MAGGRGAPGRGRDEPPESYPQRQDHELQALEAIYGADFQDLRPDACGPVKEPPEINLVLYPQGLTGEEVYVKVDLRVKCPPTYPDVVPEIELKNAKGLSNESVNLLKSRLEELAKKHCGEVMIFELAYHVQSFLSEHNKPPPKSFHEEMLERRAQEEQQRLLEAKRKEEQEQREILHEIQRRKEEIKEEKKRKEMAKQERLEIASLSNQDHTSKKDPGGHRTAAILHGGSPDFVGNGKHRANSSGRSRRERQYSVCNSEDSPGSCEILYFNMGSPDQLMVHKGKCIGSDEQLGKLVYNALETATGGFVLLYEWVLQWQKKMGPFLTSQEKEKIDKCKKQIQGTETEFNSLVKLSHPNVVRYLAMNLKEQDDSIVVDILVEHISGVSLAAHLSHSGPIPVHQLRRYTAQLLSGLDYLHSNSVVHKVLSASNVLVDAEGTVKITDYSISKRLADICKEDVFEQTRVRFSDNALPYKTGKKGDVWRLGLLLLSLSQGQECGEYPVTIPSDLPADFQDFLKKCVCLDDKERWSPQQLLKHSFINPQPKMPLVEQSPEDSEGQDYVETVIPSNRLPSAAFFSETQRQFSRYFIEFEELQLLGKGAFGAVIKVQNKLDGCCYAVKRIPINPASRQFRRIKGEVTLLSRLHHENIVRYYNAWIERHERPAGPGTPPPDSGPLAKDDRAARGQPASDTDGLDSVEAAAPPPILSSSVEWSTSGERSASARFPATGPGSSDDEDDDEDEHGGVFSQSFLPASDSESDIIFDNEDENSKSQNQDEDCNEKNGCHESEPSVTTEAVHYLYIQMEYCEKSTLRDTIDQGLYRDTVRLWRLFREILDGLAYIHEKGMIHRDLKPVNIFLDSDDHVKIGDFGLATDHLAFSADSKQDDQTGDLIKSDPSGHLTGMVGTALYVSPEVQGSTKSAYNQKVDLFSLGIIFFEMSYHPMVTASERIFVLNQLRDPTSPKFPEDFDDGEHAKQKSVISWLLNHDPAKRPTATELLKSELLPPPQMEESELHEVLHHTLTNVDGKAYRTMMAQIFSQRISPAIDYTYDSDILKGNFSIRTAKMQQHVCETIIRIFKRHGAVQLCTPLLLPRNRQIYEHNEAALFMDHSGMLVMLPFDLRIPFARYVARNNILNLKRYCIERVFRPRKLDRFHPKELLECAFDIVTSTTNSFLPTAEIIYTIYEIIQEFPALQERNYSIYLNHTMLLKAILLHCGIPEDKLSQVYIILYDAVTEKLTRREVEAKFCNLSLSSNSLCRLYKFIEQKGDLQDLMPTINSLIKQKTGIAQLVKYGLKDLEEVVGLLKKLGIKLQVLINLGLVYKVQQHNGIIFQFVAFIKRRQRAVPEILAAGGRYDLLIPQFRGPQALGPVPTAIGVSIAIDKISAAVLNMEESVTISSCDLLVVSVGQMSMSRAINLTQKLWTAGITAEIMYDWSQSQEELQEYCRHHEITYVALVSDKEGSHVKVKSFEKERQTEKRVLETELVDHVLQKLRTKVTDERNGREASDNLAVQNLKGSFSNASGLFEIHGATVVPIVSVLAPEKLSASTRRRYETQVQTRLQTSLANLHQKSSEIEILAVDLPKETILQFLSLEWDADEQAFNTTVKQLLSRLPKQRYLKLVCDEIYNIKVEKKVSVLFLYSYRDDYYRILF
Chain of CDK4/cyclinD3(h) (P11802 whole entry): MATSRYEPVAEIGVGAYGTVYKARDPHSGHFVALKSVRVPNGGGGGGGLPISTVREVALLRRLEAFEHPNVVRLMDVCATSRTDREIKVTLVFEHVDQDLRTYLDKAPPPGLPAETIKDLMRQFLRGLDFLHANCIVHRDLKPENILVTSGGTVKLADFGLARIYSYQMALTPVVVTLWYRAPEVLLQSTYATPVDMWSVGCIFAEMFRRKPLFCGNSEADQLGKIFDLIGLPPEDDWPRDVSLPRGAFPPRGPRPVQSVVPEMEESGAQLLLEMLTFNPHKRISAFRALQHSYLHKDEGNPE
Chain of CDK4/cyclinD3(h) (P30281 whole entry partner): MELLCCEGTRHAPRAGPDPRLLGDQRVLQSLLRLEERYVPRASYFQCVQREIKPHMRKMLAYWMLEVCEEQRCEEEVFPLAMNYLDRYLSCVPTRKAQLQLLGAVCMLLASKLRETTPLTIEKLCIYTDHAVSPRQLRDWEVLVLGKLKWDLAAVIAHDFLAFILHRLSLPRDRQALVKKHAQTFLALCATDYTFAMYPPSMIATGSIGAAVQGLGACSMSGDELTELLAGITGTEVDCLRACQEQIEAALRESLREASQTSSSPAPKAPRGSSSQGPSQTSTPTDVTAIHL

Fc1ccc(CNc2ncnc3ccc(F)cc23)cc1 [5aa, 6-Fluoro-N-(4-fluorobenzyl)-4-Quinazolinamine]
remaining activity at 10 µM (BMPR2(h); [1]): 115% | remaining activity at 10 µM (CDK4/cyclinD3(h); [1]): 101% | remaining activity at 10 µM (GCN2(h); [1]): 85% | remaining activity at 10 µM (NEK11(h); [1]): 41%

Fc1ccc(CCNc2ncnc3ccc(F)cc23)cc1 [5as, 6-Fluoro-N-[2-(4-Fluorophenyl)Ethyl]-4-Quinazolinamine]
remaining activity at 10 µM (BMPR2(h); [2]): 108% | remaining activity at 10 µM (CDK4/cyclinD3(h); [2]): 97% | remaining activity at 10 µM (GCN2(h); [2]): 85% | remaining activity at 10 µM (NEK11(h); [2]): 71%

Fc1ccc2ncnc(NCCc3ccc(Cl)cc3)c2c1 [5at, N-[2-(4-Chlorophenyl)Ethyl]-6-Fluoro-4-Quinazolinamine]
remaining activity at 10 µM (BMPR2(h); [3]): 103% | remaining activity at 10 µM (CDK4/cyclinD3(h); [3]): 95% | remaining activity at 10 µM (GCN2(h); [3]): 97% | remaining activity at 10 µM (NEK11(h); [3]): 45%

COc1ccc2ncnc(Nc3cccc(F)c3)c2c1 [5ay, N-(3-Fluorophenyl)-6-Methoxy-4-Quinazolinamine]
remaining activity at 10 µM (BMPR2(h); [4]): 99% | remaining activity at 10 µM (CDK4/cyclinD3(h); [4]): 100% | remaining activity at 10 µM (GCN2(h); [4]): 83% | remaining activity at 10 µM (NEK11(h); [4]): 53%
